Experimental data from ChEMBL document CHEMBL1201862, “PubChem BioAssay data set” (2004).
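A five-concentration, 48-hour dose response in 96-well plates underlies each endpoint, interpolated linearly between surrounding concentrations. GI50 = concentration required for 50% inhibition of growth.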 The source made the active and inactive calls. Rule as the data show it: active = GI50 up to about 1.1 µM and inactive = higher.

Columns and labels:
Assay in all cases: inhibition of tumour cell growth, NCI panel, 48 h
NCI-H226 = system: NCI-H226
SN12C = system: SN12C
M14 = system: M14
DU-145 = system: DU-145
CCRF-CEM = system: CCRF-CEM
OVCAR-5 = system: OVCAR-5
Hs-578T = system: Hs-578T
KM12 = system: KM12
SF-539 = system: SF-539
SNB-19 = system: SNB-19
ACHN = system: ACHN
EKVX = system: EKVX
SK-MEL-28 = system: SK-MEL-28
MDA-MB-231 = system: MDA-MB-231
SK-OV-3 = system: SK-OV-3
K562 = system: K562
COLO 205 = system: COLO 205
T47D = system: T47D
RXF 393 = system: RXF 393

## CC(C)C(/C=C/c1ccc(Cl)c(Cl)c1)=N\NC(=O)N/N=C(/C=C/c1ccc(Cl)c(Cl)c1)C(C)C
NCI-H226
  GI50: > 100 µM (inactive)
SN12C
  GI50: > 100 µM (inactive)
M14
  GI50: > 100 µM (inactive)
DU-145
  GI50: > 100 µM (inactive)
CCRF-CEM
  GI50: > 100 µM (inactive)
OVCAR-5
  GI50: > 100 µM (inactive)
Hs-578T
  GI50: > 100 µM (inactive)
KM12
  GI50: > 100 µM (inactive)
SF-539
  GI50: > 100 µM (inactive)
SNB-19
  GI50: > 100 µM (inactive)
ACHN
  GI50: > 100 µM (inactive)
EKVX
  GI50: > 100 µM (inactive)
SK-MEL-28
  GI50: > 100 µM (inactive)
MDA-MB-231
  GI50: > 100 µM (inactive)
SK-OV-3
  GI50: > 100 µM (inactive)
K562
  GI50: > 100 µM (inactive)
COLO 205
  GI50: > 100 µM (inactive)

## CC(=O)C(=NNc1ccc(-n2c(C)nc3ccc(Br)cc3c2=O)cc1)C(C)=O
NCI-H226
  GI50: 72.9 µM (inactive)
SN12C
  GI50: > 100 µM (inactive)
M14
  GI50: > 100 µM (inactive)
DU-145
  GI50: 93.8 µM (inactive)
CCRF-CEM
  GI50: > 100 µM (inactive)
OVCAR-5
  GI50: > 100 µM (inactive)
Hs-578T
  GI50: 26.7 µM (inactive)
KM12
  GI50: > 100 µM (inactive)
SF-539
  GI50: 47.3 µM (inactive)
SNB-19
  GI50: 45.6 µM (inactive)
ACHN
  GI50: 98.4 µM (inactive)
EKVX
  GI50: > 100 µM (inactive)
SK-MEL-28
  GI50: > 100 µM (inactive)
MDA-MB-231
  GI50: 37.2 µM (inactive)
SK-OV-3
  GI50: > 100 µM (inactive)
K562
  GI50: > 100 µM (inactive)
T47D
  GI50: > 100 µM (inactive)
COLO 205
  GI50: > 100 µM (inactive)

## [O-][n+]1c2ccccc2[n+]([O-])c2ccccc21
NCI-H226
  GI50: > 100 µM (inactive)
SN12C
  GI50: > 100 µM (inactive)
M14
  GI50: 33.1 µM (inactive)
DU-145
  GI50: 45.4 µM (inactive)
CCRF-CEM
  GI50: 4.32 µM (inactive)
OVCAR-5
  GI50: > 100 µM (inactive)
Hs-578T
  GI50: > 100 µM (inactive)
SF-539
  GI50: > 100 µM (inactive)
SNB-19
  GI50: 86.3 µM (inactive)
ACHN
  GI50: 61 µM (inactive)
EKVX
  GI50: > 100 µM (inactive)
SK-MEL-28
  GI50: > 100 µM (inactive)
MDA-MB-231
  GI50: 44.5 µM (inactive)
K562
  GI50: > 100 µM (inactive)
T47D
  GI50: 35.3 µM (inactive)
COLO 205
  GI50: 15.6 µM (inactive)

## COc1cc(NC(C)=O)ccc1C(=O)N/N=C/c1ccc(Cl)cc1Cl
NCI-H226
  GI50: 77.1 µM (inactive)
RXF 393
  GI50: 20.7 µM (inactive)
SN12C
  GI50: 22.4 µM (inactive)
M14
  GI50: 48.1 µM (inactive)
DU-145
  GI50: 26.3 µM (inactive)
CCRF-CEM
  GI50: 95.3 µM (inactive)
OVCAR-5
  GI50: 46.3 µM (inactive)
Hs-578T
  GI50: 32.7 µM (inactive)
KM12
  GI50: 33 µM (inactive)
SF-539
  GI50: 87.7 µM (inactive)
SNB-19
  GI50: 42.8 µM (inactive)
ACHN
  GI50: 31.4 µM (inactive)
EKVX
  GI50: 32.7 µM (inactive)
SK-MEL-28
  GI50: 59.4 µM (inactive)
SK-OV-3
  GI50: 29.7 µM (inactive)
K562
  GI50: 50.2 µM (inactive)
T47D
  GI50: 16.3 µM (inactive)
COLO 205
  GI50: > 100 µM (inactive)

## CC1(C)OCC2(CO1)CSCCCSCC1(COC(C)(C)OC1)CSCCCSC2
SN12C
  GI50: > 100 µM (inactive)
M14
  GI50: > 100 µM (inactive)
DU-145
  GI50: > 100 µM (inactive)
CCRF-CEM
  GI50: > 100 µM (inactive)
OVCAR-5
  GI50: > 100 µM (inactive)
KM12
  GI50: > 100 µM (inactive)
SF-539
  GI50: > 100 µM (inactive)
SNB-19
  GI50: > 100 µM (inactive)
EKVX
  GI50: > 100 µM (inactive)
SK-MEL-28
  GI50: > 100 µM (inactive)
MDA-MB-231
  GI50: > 100 µM (inactive)
SK-OV-3
  GI50: > 100 µM (inactive)
K562
  GI50: > 100 µM (inactive)
T47D
  GI50: > 100 µM (inactive)
COLO 205
  GI50: > 100 µM (inactive)

## Nc1nc(N)c2nnn(C[C@H]3CC[C@@H](CO)C3)c2n1
NCI-H226
  GI50: > 100 µM (inactive)
RXF 393
  GI50: > 100 µM (inactive)
SN12C
  GI50: 38.5 µM (inactive)
M14
  GI50: > 100 µM (inactive)
DU-145
  GI50: > 100 µM (inactive)
CCRF-CEM
  GI50: > 100 µM (inactive)
OVCAR-5
  GI50: > 100 µM (inactive)
Hs-578T
  GI50: > 100 µM (inactive)
KM12
  GI50: > 100 µM (inactive)
SF-539
  GI50: > 100 µM (inactive)
SNB-19
  GI50: > 100 µM (inactive)
ACHN
  GI50: > 100 µM (inactive)
EKVX
  GI50: > 100 µM (inactive)
SK-MEL-28
  GI50: > 100 µM (inactive)
MDA-MB-231
  GI50: > 100 µM (inactive)
SK-OV-3
  GI50: > 100 µM (inactive)
K562
  GI50: > 100 µM (inactive)
COLO 205
  GI50: > 100 µM (inactive)

## Fc1nc(-c2c3ccccc3c3sc4ccccc4n23)nc(N2CCOCCOCCOCCOCC2)n1
NCI-H226
  GI50: > 100 µM (inactive)
RXF 393
  GI50: 18.5 µM (inactive)
SN12C
  GI50: > 100 µM (inactive)
M14
  GI50: > 100 µM (inactive)
DU-145
  GI50: > 100 µM (inactive)
CCRF-CEM
  GI50: 54.5 µM (inactive)
OVCAR-5
  GI50: > 100 µM (inactive)
Hs-578T
  GI50: 37.3 µM (inactive)
KM12
  GI50: > 100 µM (inactive)
SF-539
  GI50: 21.6 µM (inactive)
SNB-19
  GI50: 35.6 µM (inactive)
ACHN
  GI50: > 100 µM (inactive)
EKVX
  GI50: > 100 µM (inactive)
SK-MEL-28
  GI50: > 100 µM (inactive)
MDA-MB-231
  GI50: 86.9 µM (inactive)
SK-OV-3
  GI50: 71 µM (inactive)
K562
  GI50: > 100 µM (inactive)
COLO 205
  GI50: > 100 µM (inactive)

## Cc1cc2nc(C=C(C(F)(F)F)C(F)(F)F)oc2cc1C
RXF 393
  GI50: 2.49 µM (inactive)
SN12C
  GI50: 2.41 µM (inactive)
M14
  GI50: 2.51 µM (inactive)
DU-145
  GI50: 5.64 µM (inactive)
CCRF-CEM
  GI50: 1.06 µM (active)
OVCAR-5
  GI50: 3.04 µM (inactive)
Hs-578T
  GI50: 3.37 µM (inactive)
KM12
  GI50: > 10 µM (inactive)
SF-539
  GI50: 2.88 µM (inactive)
SNB-19
  GI50: 3.45 µM (inactive)
ACHN
  GI50: 5.06 µM (inactive)
EKVX
  GI50: 3.15 µM (inactive)
SK-MEL-28
  GI50: > 10 µM (inactive)
MDA-MB-231
  GI50: 2.88 µM (inactive)
SK-OV-3
  GI50: > 10 µM (inactive)
K562
  GI50: 2.25 µM (inactive)
T47D
  GI50: 2.94 µM (inactive)
COLO 205
  GI50: 0.199 µM (active)
